The Papp is the rate of passage across a membrane or cell layer, normalised by area and donor concentration. Low values mean poor permeation, high ones ready permeation. A word on the AUC: it is concentration integrated over time. A high value points to more exposure. A word on the Tmax: it is the time from dosing to the highest level. The term Cmax denotes the peak of the concentration-time curve.

The source of these data is paper PMC8350397, “GSK137, a potent small-molecule BCL6 inhibitor with in vivo activity, suppresses antibody responses in mice” (The Journal of Biological Chemistry, 2021).

The test system of data set [1] is splenic GC B cells and Tfh cells. Kind of data set: TNP-KLH immunization model, flow cytometry of spleen cells. The format is in vivo, mouse. The note with it: for reduction of mean absolute number of Tfh cells per spleen vs vehicle: day 12, not statistically significant. The protocol: (§1) Male CD1 mice (30–40 g, 8–9 weeks of age) were randomized into study treatment groups, housed individually and allowed to acclimatize under standard laboratory conditions for a minimum of 5 days prior to commencement of the study. Mice received food and water ad libitum. The experiment was performed in a certified dedicated in vivo experimental laboratory at the GlaxoSmithKline Medicines Research Centre, Stevenage, United Kingdom. The four treatment groups were (1) unimmunized and untreated (naive group) (n = 4); (2) intraperitoneal vehicle (n = 13), (3) GSK137 15 mg/kg (n = 14), and (4) GSK137 30 mg/kg (n = 14). Groups (2) to (4) were given intraperitoneal immunization with TNP–KLH (100 μg) on day 0, vehicle was 1% methylcellulose in water + 0.1% sodium lauryl sulphate, and compound or vehicle was given to groups (2) to (4) by oral gavage three times per day from day −1 to day +12. Blood samples were collected by tail vein for measurement of compound, IgM and IgG levels on days 0, 5, 8, and 12 ahead of immunization/first daily dose. On day 8, blood samples were also taken (n = 7) at 0.5, 1.5, 3, 5, or 7 h after first daily dose. On day 12, spleens were collected, weighed, and placed into Dulbecco's modified Eagle's medium on wet ice for analysis by flow cytometry.
For cell measurements, spleens were passed through a […] cell strainer, red blood cells were lysed, and cells were resuspended in medium, counted, and 1 × 10^6 cells plated for staining. Cells were washed in PBS and resuspended in 100 μl viability dye (diluted 1:1000 in PBS) for 15 min at room temperature. About 100 μl cell-staining buffer (CSB; BioLegend; catalog no. 420201) was added to each well before centrifugation and removal of supernatants, and cell pellets were resuspended in 100 μl relevant cocktail of antibodies (Table S2) for surface staining and incubated for 30 min at 4 °C. Cells were then washed in CSB and resuspended in 200 μl of FoxP3 fixation and permeabilization buffer for 30 min for staining of intracellular markers for 30 min. Cells were washed in PermWash buffer and resuspended in CSB (250 μl) before acquisition of a Cytek Aurora spectral cytometer (Cytek). Gating was carried out as shown (Figs. S1 and S2), and data were analyzed on FlowJo 10 (Becton Dickinson). Cell frequency was used to calculate an absolute cell number per tissue from the total live cell counts from whole homogenized spleen. Data were normalized against background GC and Tfh quantified in naive mice prior to performing percent inhibition calculations.
Single cell suspensions were generated by passing spleens through a 40 µM cell strainer into medium (RPMI 1640 supplemented with 2% fetal calf serum, 1% penicillin / streptomycin, 1% L-glutamine). Following centrifugation (400 g, 5 minutes, 4 °C) and removal of supernatants, red blood cells were lysed by incubation in 1 mL lysis buffer for 1 minute at room temperature. Cells were resuspended in medium, counted on a Nucleocounter NC3000 (Chemometec, Lillerød, Denmark) and 1x10^6 cells plated into 96-well polypropylene plates for staining. Cells were washed in 200 µL PBS and resuspended in 100 µL viability dye (diluted 1:1000 in PBS) for 15 minutes at room temperature. 100 µL cell staining buffer (CSB) (BioLegend, San Diego, CA, USA, #420201) was added to each well before centrifugation and removal of supernatants. Cell pellets were resuspended in 100 µL relevant cocktail of antibodies (see Tables S2 and S3) for surface staining and incubated for 30 minutes at 4 °C. Cells were washed in CSB and resuspended in 200 uL of FoxP3 fixation and permeabilisation buffer for 30 minutes in the dark at room temperature, washed and stained for intracellular markers for 30 minutes at room temperature. Cells were washed in Permwash and resuspended in CSB (250 µL) before acquisition on a Cytek Aurora spectral cytometer (Cytek, Fremont, CA, USA). […]
(In flow cytometry, cells or beads pass a laser one at a time.)

In data set [2] the target is human serum albumin (HSA) (Homo sapiens, UniProt P02768). The data set is described as follows: Binding to human serum albumin. The data set is classed as in vitro ADME.
The nature of another data set: Permeability (Papp). The data set is classed as in vitro ADME. The note with it: not told.
The nature of data set [3]: Tolerability in the immunization model (body weight, signs of toxicity, cytokines). The data set is classed as in vivo, mouse. The protocol: as §1
To determine cytokine and chemokine levels plasma samples were analysed by electrochemiluminescence assay using a custom mouse multiplex kit (K15355K-4, Meso Scale Diagnostics (MSD), Rockville, MD, USA) to measure IFNγ, IL-6, IL-10, TNF, MCP-1, KC, IL-12, IL1b, IL-13 and IL17a according to the manufacturer’s protocol. Plates were read using an MSD Sector Imager 6000 and analysed with Discovery workbench software v4.0.11, cytokine data were back-fitted to the MSD standard curve.

Data set [4] in a line: Pharmacokinetics in blood during the immunization study. The data set is classed as in vivo. The conditions noted are these: male, CD1, mouse, whole blood, po; for AUC: daily steady state, from simulated profiles; for Tmax: day 8; for Cmax: day 8, blood. Here is the method: as §1
Mouse blood/water (50/50) samples were analyzed for GSK137 using an analytical method based on protein precipitation, followed by HPLC/MS–MS analysis. The lower limit of quantification for GSK137 was 1.2 ng/ml with a higher limit of quantification of 3000 ng/ml. A two-compartment PK model was used to describe the measured composite mean steady-state oral concentration–time profiles. A three times per day dose simulation was performed using the two-compartment PK model parameters generated to simulate the repeat dose concentration–time profile. All modelings were conducted in Phoenix64 (WinNonLin) version 8.1 (Pharsight).

human serum albumin (HSA), sequence (P02768 25-609): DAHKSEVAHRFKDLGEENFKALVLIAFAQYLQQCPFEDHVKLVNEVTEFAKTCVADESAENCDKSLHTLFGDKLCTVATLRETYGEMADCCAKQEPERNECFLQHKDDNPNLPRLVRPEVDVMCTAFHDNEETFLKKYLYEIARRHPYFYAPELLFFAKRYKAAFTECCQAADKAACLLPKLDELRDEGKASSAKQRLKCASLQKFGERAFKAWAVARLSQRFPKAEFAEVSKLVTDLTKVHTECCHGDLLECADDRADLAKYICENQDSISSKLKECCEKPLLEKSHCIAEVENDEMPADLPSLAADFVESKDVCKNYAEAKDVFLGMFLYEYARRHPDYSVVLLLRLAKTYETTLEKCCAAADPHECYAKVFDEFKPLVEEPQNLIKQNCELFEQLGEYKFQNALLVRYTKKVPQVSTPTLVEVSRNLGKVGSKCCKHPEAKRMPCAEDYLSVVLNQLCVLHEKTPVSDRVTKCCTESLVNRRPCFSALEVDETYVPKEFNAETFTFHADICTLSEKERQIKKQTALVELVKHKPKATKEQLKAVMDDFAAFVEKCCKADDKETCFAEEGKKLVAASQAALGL

For the compound `Cc1ncccc1[C@H]1C[C@@H](c2cccc3nc(N)ccc23)Nc2c(F)cnn21` [GSK137, 5-((5S,7R)-3-Fluoro-7-(2-methylpyridin-3-yl)-4,5,6,7-tetrahydropyrazolo[1,5-a]pyrimidin-5-yl)quinolin-2-amine], the “plasmablasts and plasma cells as a percentage of total viable cells vs vehicle” value in data set [1] (15 mg/kg or 30 mg/kg, Fig. S6B) is “no statistically significant reductions”. For the same compound, the “reduction of mean number of GC B cells per spleen vs vehicle” value in data set [1] (15 mg/kg, day 12) is given as 53%; in data set [1] (30 mg/kg, day 12, p = 0.04), 67%. Further, the “reduction of mean absolute number of Tfh cells per spleen vs vehicle” value in data set [1] (15 mg/kg) was determined as 39%; in data set [1] (30 mg/kg) it was 34%. Besides, the “reduction of frequency of GC B cells within total splenic B cells vs vehicle” value in data set [1] (15 mg/kg, day 12, p = 0.0058) turned out to be 61%; in data set [1] (30 mg/kg, day 12, p = 0.0031) it was 72%. Further, the “reduction of mean frequency of Tfh cells as fraction of splenic CD4+ T cells vs vehicle” value came to 48% in data set [1] (15 mg/kg, day 12, p = 0.014) and 50% in data set [1] (30 mg/kg, day 12, p = 0.0041). Further, the “number of plasmablasts and plasma cells (CD19+/intCD138+) in spleen vs vehicle” value in data set [1] (15 and 30 mg/kg, after immunization) is given as “no statistically significant difference”. The “macrophage, dendritic cell and natural killer cell markers (CD11c, CD11b, CD161) vs vehicle” value in data set [1] (data not shown) is “no difference”. The “mean total CD4+ T-cell numbers per spleen” value in data set [1] (significant at 30 mg/kg (p = 0.032), not at 15 mg/kg) is recorded as “return mean CD4^+ T-cell numbers to levels observed in naive mice”. This compound also returned an HSA binding in data set [2] of 91%. Also, the Papp in the data set “Permeability (Papp)” was determined as 8.6 ×10⁻⁶ cm/s. Moreover, the “mouse weights vs vehicle group” value in data set [3] (15 and 30 mg/kg orally TID, over the experiment) was “did not vary significantly”. Further, the “overt signs of toxicity” value in data set [3] (at the doses used (15 and 30 mg/kg)) was “no overt signs of toxicity”. Besides, the “levels of a panel of cytokines vs vehicle” value in data set [3] (mouse, in vivo) is “either undetectable or, if detectable, did not differ significantly”. For the same compound, the AUC in data set [4] (15 mg/kg orally TID) was 3400 ng·h/mL; in data set [4] (30 mg/kg orally TID), 6810 ng·h/mL. Also, the time of peak concentration (Tmax) in data set [4] (15 mg/kg orally TID) and in data set [4] (30 mg/kg orally TID) was 30 min in each case. In addition, the Cmax in data set [4] (15 mg/kg orally TID) amounted to 471 ± 226 ng/mL; in data set [4] (30 mg/kg orally TID) it was 1340 ± 141 ng/mL.
